Experimental data from patent publication US20250019398A1, “NONAMERIC PEPTIDE HAVING EXCELLENT ANTIBACTERIAL ACTIVITY AGAINST GRAM-NEGATIVE BACTERIA AND ENANTIOMER THEREOF” (priority 2021, published 2025).
Converted amounts (≈) assume the structure as drawn. Where two headings read alike, the source gives them in different places.

Experiments:
[1] = system: Escherichia coli KCTC 1682; assay: MIC, broth dilution; type: cell-based; conditions: standard Gram-negative bacteria, 16 hours, read-out: Minimal inhibitory concentration (MIC), E. coli
From the text: (§1) In addition, carbapenem-resistant E. coli NCCP16044 and carbapenem-resistant Klebsiella pneumonia NCCP 15782 were obtained from the NCCP, and three types of carbapenem-resistant A. baumanii CCARM 12004-6 were obtained from the Culture Collection of Antimicrobial Resistance Microbes (CCARM) (Cheongju City, Korea). The E. coli K1 (ATCC700973) strain used in the animal experiments was obtained from the American Type Culture Collection (ATCC) ([…]).
(§2) The antimicrobial activities of the peptides were measured by a minimal inhibitory concentration (MIC) analysis. The MIC was determined using a broth dilution method. All bacterial strains were grown overnight at 37° C. in a Muller-Hinton (MH) medium.

[2] = system: Acinetobacter baumannii KCCM 40203; assay: MIC, broth dilution; type: cell-based; conditions: standard Gram-negative bacteria, 16 hours
From the text: as §1, with “Among the bacterial strains used in the experiment, Escherichia coli KCTC 1682 was obtained from the Korean Collection for Type Cultures (KCTC) (Jeongeup, Korea), Acinetobacter baumannii KCCM 40203 and Pseudomonas aeruginosa KCCM 11328 were obtained from the Korean Culture Center of Microorganisms (KCCM) (Seoul, Korea), and Klebsiella pneumonia NCCP 16054 was obtained from the National Culture Collection for Pathogens (NCCP) (Osong, Korea). In” for “In”
as §2

[3] = system: Klebsiella pneumonia NCCP 16054; assay: MIC, broth dilution; type: cell-based; conditions: standard Gram-negative bacteria, 16 hours
From the text: as §1, with “Among the bacterial strains used in the experiment, Escherichia coli KCTC 1682 was obtained from the Korean Collection for Type Cultures (KCTC) (Jeongeup, Korea), Acinetobacter baumannii KCCM 40203 and Pseudomonas aeruginosa KCCM 11328 were obtained from the Korean Culture Center of Microorganisms (KCCM) (Seoul, Korea), and Klebsiella pneumonia NCCP 16054 was obtained from the National Culture Collection for Pathogens (NCCP) (Osong, Korea). In” for “In”
as §2

[4] = system: Pseudomonas aeruginosa KCCM 11328; assay: MIC, broth dilution; type: cell-based; conditions: standard Gram-negative bacteria, 16 hours
From the text: as §1, with “Among the bacterial strains used in the experiment, Escherichia coli KCTC 1682 was obtained from the Korean Collection for Type Cultures (KCTC) (Jeongeup, Korea), Acinetobacter baumannii KCCM 40203 and Pseudomonas aeruginosa KCCM 11328 were obtained from the Korean Culture Center of Microorganisms (KCCM) (Seoul, Korea), and Klebsiella pneumonia NCCP 16054 was obtained from the National Culture Collection for Pathogens (NCCP) (Osong, Korea). In” for “In”
as §2

[5] = system: carbapenem-resistant Klebsiella pneumonia NCCP 15782 (CRKP 15782); assay: MIC, broth dilution; type: cell-based; conditions: 16 hours
From the text: as §1, with “Among the bacterial strains used in the experiment, Escherichia coli KCTC 1682 was obtained from the Korean Collection for Type Cultures (KCTC) (Jeongeup, Korea), Acinetobacter baumannii KCCM 40203 and Pseudomonas aeruginosa KCCM 11328 were obtained from the Korean Culture Center of Microorganisms (KCCM) (Seoul, Korea), and Klebsiella pneumonia NCCP 16054 was obtained from the National Culture Collection for Pathogens (NCCP) (Osong, Korea). In” for “In”
as §2

[6] = system: carbapenem-resistant E. coli NCCP16044 (CREC 16044); assay: microbe, parasite or virus in culture; type: cell-based; conditions: 16 hours, read-out: Minimal inhibitory concentration (MIC), CREC 16044
From the text: as §1, with “Among the bacterial strains used in the experiment, Escherichia coli KCTC 1682 was obtained from the Korean Collection for Type Cultures (KCTC) (Jeongeup, Korea), Acinetobacter baumannii KCCM 40203 and Pseudomonas aeruginosa KCCM 11328 were obtained from the Korean Culture Center of Microorganisms (KCCM) (Seoul, Korea), and Klebsiella pneumonia NCCP 16054 was obtained from the National Culture Collection for Pathogens (NCCP) (Osong, Korea). In” for “In”
as §2

[7] = system: CRAB 12004 (carbapenem-resistant A. baumanii CCARM); assay: MIC, broth dilution; type: cell-based, A. baumannii; conditions: 16 hours, read-out: Minimal inhibitory concentration (MIC), CRAB 12004
From the text: as §1, with “Among the bacterial strains used in the experiment, Escherichia coli KCTC 1682 was obtained from the Korean Collection for Type Cultures (KCTC) (Jeongeup, Korea), Acinetobacter baumannii KCCM 40203 and Pseudomonas aeruginosa KCCM 11328 were obtained from the Korean Culture Center of Microorganisms (KCCM) (Seoul, Korea), and Klebsiella pneumonia NCCP 16054 was obtained from the National Culture Collection for Pathogens (NCCP) (Osong, Korea). In” for “In”
as §2

[8] = system: CRAB 12005 (carbapenem-resistant A. baumanii CCARM); assay: MIC, broth dilution; type: cell-based, A. baumannii; conditions: 16 hours, read-out: Minimal inhibitory concentration (MIC), CRAB 12005
From the text: as §1, with “Among the bacterial strains used in the experiment, Escherichia coli KCTC 1682 was obtained from the Korean Collection for Type Cultures (KCTC) (Jeongeup, Korea), Acinetobacter baumannii KCCM 40203 and Pseudomonas aeruginosa KCCM 11328 were obtained from the Korean Culture Center of Microorganisms (KCCM) (Seoul, Korea), and Klebsiella pneumonia NCCP 16054 was obtained from the National Culture Collection for Pathogens (NCCP) (Osong, Korea). In” for “In”
as §2

[9] = system: CRAB 12006 (carbapenem-resistant A. baumanii CCARM); assay: MIC, broth dilution; type: cell-based, A. baumannii; conditions: 16 hours, read-out: Minimal inhibitory concentration (MIC), CRAB 12006
From the text: as §1, with “Among the bacterial strains used in the experiment, Escherichia coli KCTC 1682 was obtained from the Korean Collection for Type Cultures (KCTC) (Jeongeup, Korea), Acinetobacter baumannii KCCM 40203 and Pseudomonas aeruginosa KCCM 11328 were obtained from the Korean Culture Center of Microorganisms (KCCM) (Seoul, Korea), and Klebsiella pneumonia NCCP 16054 was obtained from the National Culture Collection for Pathogens (NCCP) (Osong, Korea). In” for “In”
as §2

intact CRAB bacteria = assay: diSC3-5 membrane depolarization; type: cell-based, A. baumannii; conditions: 4 μM
Method: Depolarization ability by peptides was measured using a membrane potential-sensitive dye 3,3′-dipropylthiadicarbocyanine iodide (diSC3-5) using intact CRAB bacteria. CRAB cells were washed using a wash buffer (5 mM HEPES, 20 mM glucose, pH 7.4). The cells were resuspended in a dilution buffer (5 mM HEPES, 20 mM glucose, 0.1 M KCl, pH 7.4) and then cultured with a diSC3-5 dye (1 hour). Finally, the fluorescence changes of cells treated with various concentrations of peptides, a negative control (cells with dye) and a positive control (1% Triton X-100) were recorded using a fluorescence spectrophotometer, and the results are expressed as percent depolarization.

CRAB 12006 = assay: Crystal violet biofilm inhibition; type: cell-based, A. baumannii; conditions: 0-32 μM, 16 h
Method: A crystal-violet-based assay was used to investigate the biofilm inhibition ability of R-Pro9-3D against A. baumannii standard bacteria and a CRAB 12006 line. […] Thereafter, bacterial cells were fixed with methanol (100%, 15 minutes) and then stained with crystal violet (0.1% (w/v) in 0.25% (v/v) acetic acid for 1 hour). The plate was washed with distilled H2O, dried and dissolved in ethanol (100% v/v). Color development, which indicates the extent of biofilm, was measured at 595 nm and expressed as biofilm formation percentage.

SMILES | MIC [1] | Minimal inhibitory concentration (MIC), A. baumannii [2] | Minimal inhibitory concentration (MIC), K. pneumonia [3] | Minimal inhibitory concentration (MIC), P. aeruginosa [4] | Minimal inhibitory concentration (MIC), CRKP 15782 [5] | MIC [6] | MIC [7] | MIC [8] | MIC [9] | Depolarization (intact CRAB bacteria) | MIC ([1]; Escherichia coli, KCTC1682) | MIC ([6]; Escherichia coli) | Biofilm formation inhibition, CRAB 12006 (CRAB 12006)
CC[C@H](C)[C@H](NC(=O)CN)C(=O)NCC(=O)N[C@@H](C)C(=O)N[C@H](C(=O)N[C@@H](CC(C)C)C(=O)N[C@@H](CCCCN)C(=O)N[C@H](C(=O)N[C@@H](CC(C)C)C(=O)N[C@H](C(=O)N[C@H](C(=O)NCC(=O)N[C@@H](CC(C)C)C(=O)N1CCC[C@H]1C(=O)N[C@@H](C)C(=O)N[C@@H](CC(C)C)C(=O)N[C@H](C(=O)N[C@@H](CO)C(=O)N[C@@H](Cc1c[nH]c2ccccc12)C(=O)N[C@H](C(=O)N[C@@H](CCCCN)C(=O)N[C@@H](CCCNC(=N)N)C(=O)N[C@@H](CCCCN)C(=O)N[C@@H](CCCNC(=N)N)C(=O)N[C@@H](CCC(N)=O)C(=O)N[C@@H](CCC(N)=O)C(N)=O)[C@@H](C)CC)[C@@H](C)CC)[C@@H](C)O)[C@@H](C)O)C(C)C)C(C)C [Melittin] | 8 µM (≈ 22.8 µg/mL) | 4 µM (≈ 11.4 µg/mL) | 32 µM (≈ 91.1 µg/mL) | 16 µM (≈ 45.5 µg/mL) | 32 µM (≈ 91.1 µg/mL) | 8 µM (≈ 22.8 µg/mL) | 4 µM (≈ 11.4 µg/mL) | 4 µM (≈ 11.4 µg/mL) | 4 µM (≈ 11.4 µg/mL) | 75.6% | – | – | –
C[C@@H](O)[C@H]1C(=O)N2C(C(=O)O)=C(S[C@@H]3CN[C@H](C(=O)N(C)C)C3)[C@H](C)[C@H]12 [Meropenem] | – | – | – | – | – | – | – | – | – | – | 0.25 µM (≈ 0.0959 µg/mL) | 8 µM (≈ 3.07 µg/mL) | remarkably lower
